# Data from article PMC7265429, “Characterization of a new small-molecule inhibitor of HDAC6 in glioblastoma” (Cell Death & Disease, 2020).
# System: GNS166 cells
# Test: Microarray whole-transcriptome gene expression analysis
# Assay type: cell-based, human
# Conditions: DMSO vs 5 µM SAHA, upregulated genes
# Experimental: Whole-transcriptome analysis was performed from 300 ng of RNA using HuGene-2_0-st-v1 expression array (Affymetrix), which covers 48,226 transcripts. Raw data were first checked for quality purposes through the Affymetrix® Expression Console™ Software v1.4.1 and TAC software v4.0. Then, data were normalized using the Robust Multi-array Average (RMA) and analyzed by Limma tool. Probesets with FDR-corrected p-values smaller than 0.05 were selected. Functional enrichment on Gene Ontology (GO) biological processes was performed on a smaller subset of the differentially expressed genes (corrected p-value < 0.001) by means of Broad Institute GSEA. […] The data that support this study have been deposited in NCBI´s Gene Expression Omnibus and are accessible through GEO series accession number GSE143887.
structure (smiles),measurement,setting,value
"O=C(CCCCCCC(=O)Nc1ccccc1)NO [SAHA, Suberoylanilide hydroxamic acid]",logFC NMUR2,transcript TC0500012531.hg.1,2.3
same,logFC PIM1,transcript TC0600007862.hg.1,1.267
same,logFC BCKDHB,transcript TC0600008632.hg.1,0.8913
same,logFC SLC16A10,transcript TC0600009143.hg.1,1.06
same,logFC TBPL1,transcript TC0600009508.hg.1,0.8103
same,logFC STK38,transcript TC0600011661.hg.1,0.8577
same,logFC SOGA3,transcript TC0600013119.hg.1,1.659
same,logFC STX7,transcript TC0600013193.hg.1,1.104
same,logFC CYB5R4,transcript TC0600014148.hg.1,0.9356
same,logFC ARL4A,transcript TC0700006737.hg.1,1.551
same,logFC AHR,transcript TC0700006795.hg.1,1.0742
same,logFC C7orf57,transcript TC0700007475.hg.1,1.163
same,logFC PRKAR2B,transcript TC0700008745.hg.1,1.383
same,logFC ANKRD7,transcript TC0700008898.hg.1,1.335
same,logFC SND1,transcript TC0700009020.hg.1,0.9855
same,logFC FAM71F1,transcript TC0700009060.hg.1,1.462
same,logFC DGKB,transcript TC0700010327.hg.1,0.979
same,logFC TMEM60,transcript TC0700011601.hg.1,0.8857
same,logFC FAM3C,transcript TC0700012427.hg.1,0.9259
same,logFC IQUB,transcript TC0700012456.hg.1,1.539
same,logFC RASA4,transcript TC0700013603.hg.1,1.334
same,logFC KIAA1456,transcript TC0800006802.hg.1,1.838
same,logFC PDGFRL,transcript TC0800006873.hg.1,1.146
same,logFC PLAT,transcript TC0800010275.hg.1,1.063
same,logFC PAG1,transcript TC0800010926.hg.1,1.472
same,logFC EXT1,transcript TC0800011579.hg.1,1.229
same,logFC SLC26A7,transcript TC0800012325.hg.1,0.8985
same,logFC PSAT1,transcript TC0900007667.hg.1,0.8807
same,logFC MLLT3,transcript TC0900009679.hg.1,1.79
same,logFC APBA1,transcript TC0900010350.hg.1,1.1769
same,logFC NR6A1,transcript TC0900011501.hg.1,1.227
same,logFC ALDH1A1,transcript TC0900012245.hg.1,1.351
same,logFC CDC14B,transcript TC0900012256.hg.1,1.18
same,logFC BAMBI,transcript TC1000007132.hg.1,1.194
same,logFC DNAJC1,transcript TC1000010006.hg.1,1.349
same,logFC ZNF215,transcript TC1100006749.hg.1,1.332
same,logFC GRIA4,transcript TC1100008948.hg.1,1.769
same,logFC C11orf88,transcript TC1100009023.hg.1,1.468
same,logFC SIK2,transcript TC1100009026.hg.1,0.9192
same,logFC NRGN,transcript TC1100009398.hg.1,0.9705
same,logFC FZD4,transcript TC1100011867.hg.1,1.1951
same,logFC CCDC82,transcript TC1100012052.hg.1,0.8598
same,logFC IL18,transcript TC1100012318.hg.1,1.544
same,logFC CDON,transcript TC1100012722.hg.1,2.237
same,logFC FAM89B,transcript TC1100013043.hg.1,0.8784
same,logFC IGF2,transcript TC1100013131.hg.1,1.158
same,logFC C12orf60,transcript TC1200006948.hg.1,1.183
same,logFC ARNTL2,transcript TC1200007147.hg.1,1.2211
same,logFC GDF11,transcript TC1200007809.hg.1,1.519
same,logFC TMTC2,transcript TC1200008322.hg.1,1.0601
same,logFC TMTC3,transcript TC1200008373.hg.1,1.159
same,logFC TXNRD1,transcript TC1200008675.hg.1,0.8282
same,logFC P2RX7,transcript TC1200009157.hg.1,1.148
same,logFC RHEBL1,transcript TC1200010612.hg.1,1.826
same,logFC ATP2B1,transcript TC1200011474.hg.1,1.035
same,logFC LRRC63,transcript TC1300007085.hg.1,1.37
same,logFC SLC46A3,transcript TC1300008468.hg.1,1.1281
same,logFC UBL3,transcript TC1300008497.hg.1,0.9113
same,logFC LCP1,transcript TC1300008840.hg.1,1.339
same,logFC KLF12,transcript TC1300009249.hg.1,1.022
same,logFC SLITRK1,transcript TC1300009376.hg.1,1.004
same,logFC FOXG1,transcript TC1400006791.hg.1,0.91
same,logFC SOCS4,transcript TC1400007221.hg.1,0.9561
same,logFC ARID4A,transcript TC1400007307.hg.1,0.9227
same,logFC SLC7A8,transcript TC1400008705.hg.1,1.877
same,logFC GCH1,transcript TC1400009239.hg.1,1.069
same,logFC KLHL28,transcript TC1400010737.hg.1,1.205
same,logFC TMOD2,transcript TC1500007238.hg.1,1.505
same,logFC LRRC49,transcript TC1500007735.hg.1,1.1742
same,logFC DENND4A,transcript TC1500009804.hg.1,1.04
same,logFC UACA,transcript TC1500009921.hg.1,1.398
same,logFC RGMA,transcript TC1500010501.hg.1,0.8186
same,logFC YPEL3,transcript TC1600009952.hg.1,1.349
same,logFC ACSM3,transcript TC1600011362.hg.1,1.318
same,logFC NLK,transcript TC1700007344.hg.1,1.006
same,logFC NGFR,transcript TC1700008209.hg.1,1.322
same,logFC DYNLL2,transcript TC1700008418.hg.1,0.9396
same,logFC MYO1D,transcript TC1700010358.hg.1,1.521
same,logFC MMD,transcript TC1700011181.hg.1,0.9396
same,logFC CBX4,transcript TC1700011953.hg.1,1.178
same,logFC UNC13A,transcript TC1900009984.hg.1,2.076
same,logFC KIAA1683,transcript TC1900010008.hg.1,1.003
same,logFC DIRAS1,transcript TC1900011842.hg.1,0.9114
same,logFC TGM2,transcript TC2000009058.hg.1,1.058
same,logFC KCNQ2,transcript TC2000009809.hg.1,1.266
same,logFC SRXN1,transcript TC2000009960.hg.1,0.9857
same,logFC SH3BGR,transcript TC2100007166.hg.1,0.8256
same,logFC ADAMTS1,transcript TC2100007821.hg.1,1.343
same,logFC TIMP3,transcript TC2200007150.hg.1,0.905
